US8637516B2 (IRM LLC, priority 2010, dated 2014)

How the values were obtained:
parental Ba/F3 cells = test: Proliferation of parental (untransformed, wt) Ba/F3 cells (BAF3/WT); format: cell-based, murine; settings: Mus musculus, Table 1, parental cells with IL3, 48 hours
Method: (§1) Compound dilutions were made in 384 well plates.
Compounds were tested for their ability to inhibit the proliferation of wt Ba/F3 cells and Ba/F3 cells transformed with constitutively expressed luciferase reporter and BCR-ABL or Tel-FMS or other Tel fusion kinases (EGFR, JAK2, ALK, BMX, FGFR3, FGFR4, FGR2, FLT1, FLT3, IGF1R, INSR, KDR, KIT, LCK, LYN, MEK, MET, PDGFRα, PDGFRβ, RET, RON, ROS, SRC, SYK, TIE and TYRO) or BRafV600E. Parental Ba/F3 cells were maintained in media containing recombinant mouse IL3 and the kinase transformed Ba/F3 cells were maintained in media without IL-3. 7.5 nl of compounds were spotted to each well of 1536-well assay plates by Liquid handling System Echo 555 (Labcyte). 700 cells were then plated into each well of the assay plates in 7 uL culture media per well and compounds were tested at 0.17 nM to 10 uM in 3-fold serial dilutions. The cells were then incubated for 48 hours at 37° C. 3 uL of Bright-Glo® (Promega) was added to each well and the plates were read using ViewLux (PerkinElmer).
(§2) The emited luminiscence is quantified using ViewLux (PerkinElmer).

[1] = molecular target: T1, Ba/F3 cells transformed with human Tel-TrkA (Homo sapiens, UniProt P04629); test: Proliferation of Ba/F3 cells transformed with human Tel-TrkA (Ba/F3 Tel-TrkA); format: cell-based; settings: Table 1; 48 hours, Bright Glo luminescence; read-out: Ba/F3 Tel-TrkA
T1 construct: expressed in transfected cells; host or cells: Ba/F3 murine hematopoietic progenitor cells (luciferase expressing); the other entry of the earlier key: ETV6 (P41212, Transcription factor ETV6)
T1 sequence (P04629 510-796 limits assumed): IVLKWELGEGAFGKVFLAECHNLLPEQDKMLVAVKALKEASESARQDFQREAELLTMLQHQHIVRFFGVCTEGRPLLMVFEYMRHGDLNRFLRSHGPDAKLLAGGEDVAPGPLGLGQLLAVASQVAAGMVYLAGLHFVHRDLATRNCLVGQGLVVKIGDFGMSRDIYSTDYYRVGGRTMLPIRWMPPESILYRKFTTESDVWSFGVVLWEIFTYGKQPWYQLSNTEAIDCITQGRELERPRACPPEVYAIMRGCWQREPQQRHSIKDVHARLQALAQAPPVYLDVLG
Source text: as §1, §2

Structure (SMILES) | IC50 (parental Ba/F3 cells) [nM] | IC50 [1] [nM]
CCCS(=O)(=O)N1CCC(NC(=O)c2cnc3ccc(N4CCC[C@@H]4c4cccc(F)c4)nn23)CC1 [X-35] | > 10000 | 26
O=C(NCC1CCCCC1)c1cnc2ccc(N3CCC[C@@H]3c3cccc(F)c3)nn12 [X-95] | > 10000 | 118
Fc1cccc([C@H]2CC(F)(F)CN2c2ccc3ncc(Br)n3n2)c1 [X-245, (R)-3-bromo-6-(4,4-difluoro-2-(3-fluorophenyl)pyrrolidin-1-yl)imidazo[1,2-b]pyridazine] | > 10000 | 44
NC(=O)NC(=O)c1cnc2ccc(N3CC(F)(F)C[C@@H]3c3cccc(F)c3)nn12 [X-248, (R)-N-carbamoyl-6-(4,4-difluoro-2-(3-fluorophenyl)pyrrolidin-1-yl)imidazo[1,2-b]pyridazine-3-carboxamide] | > 10000 | 19
[2H]C1([2H])C(c2cccc(F)c2)N(c2ccc3ncc(C(=O)OCC)n3n2)C([2H])([2H])C1([2H])[2H] (stereo not shown) [X-161] | > 10000 | 63
CCC(=O)c1cnc2ccc(N3CCC[C@@H]3c3cccc(F)c3)nn12 [X-123, (R)-1-(6-(2-(3-fluorophenyl)pyrrolidin-1-yl)imidazo[1,2-b]pyridazin-3-yl)propan-1-one] | > 10000 | 97
[2H]C1(c2cccc(F)c2)CCCN1c1ccc2ncc(C(=O)OCC)n2n1 (stereo not shown) [X-162] | > 10000 | 80
CCOC(=O)c1cnc2ccc(N3CC(F)(F)C(F)(F)[C@@H]3c3cccc(F)c3)nn12 [X-164, (S)-ethyl 6-(3,3,4,4-tetrafluoro-2-(3-fluorophenyl)pyrrolidin-1-yl)imidazo[1,2-b]pyridazine-3-carboxylate] | > 10000 | 600
O=C(NC1CCCCC1)c1cnc2ccc(N3CCC[C@@H]3c3cccc(F)c3)nn12 [X-49] | > 9340 | 22
CC(C)(CO)NC(=O)c1cnc2ccc(N3CCC[C@@H]3c3cccc(F)c3)nn12 [X-83] | > 10000 | 20
O=C(NC1CC1)c1cnc2ccc(N3CCC[C@@H]3c3cccc(F)c3)nn12 [X-44] | > 10000 | 11
COCC(=O)Nc1cnc2ccc(N3CCC[C@@H]3c3cccc(F)c3)nn12 [X-200] | > 8830 | 23
COc1cccc(/C=C/C(=O)c2cnc3ccc(N4CCC[C@@H]4c4cccc(F)c4)nn23)n1 [X-131] | 1670 | 194
CC(=O)N1CC(NC(=O)c2cnc3ccc(N4CCC[C@@H]4c4cccc(F)c4)nn23)C1 [X-64] | > 10000 | 832
NC(=O)c1cnc2ccc(N3CCC[C@@H]3c3cccc(F)c3)nn12 [X-6] | > 10000 | 51
CCOC(=O)N1CCC(NC(=O)c2cnc3ccc(N4CCC[C@@H]4c4cccc(F)c4)nn23)CC1 [X-50] | > 10000 | 40
O=C(Nc1cnc2ccc(N3CC(F)(F)C[C@@H]3c3cccc(F)c3)nn12)Oc1ccccc1 [X-238] | > 10000 | 445
O=C(NCc1ccc(F)cc1)c1cnc2ccc(N3CCC[C@@H]3c3cccc(F)c3)nn12 [X-47] | > 10000 | 70
N#Cc1cnc2ccc(N3CCOCC3c3cccc(F)c3)nn12 (stereo not shown) [X-3, 6-(3-(3-fluorophenyl)morpholino)imidazo[1,2-b]pyridazine-3-carbonitrile] | > 10000 | 957
O=C(NCCCCO)c1cnc2ccc(N3CCC[C@@H]3c3cccc(F)c3)nn12 [X-20] | > 10000 | 30
O=C(NCCC1CCCCC1)c1cnc2ccc(N3CCC[C@@H]3c3cccc(F)c3)nn12 [X-91] | 6160 | 289
CCNC(=O)c1cnc2ccc(N3CCC[C@@H]3c3cccc(F)c3)nn12 [X-55] | > 9620 | 7
O=C(NC(CO)(CO)CO)c1cnc2ccc(N3CCC[C@@H]3c3cccc(F)c3)nn12 [X-101] | > 10000 | 452
CCOC(=O)c1cnc2ccc(N3CCC[C@@H]3c3cccc(F)c3)nn12 [X-158, (R)-ethyl 6-(2-(3-fluorophenyl)pyrrolidin-1-yl)imidazo[1,2-b]pyridazine-3-carboxylate] | > 10000 | 93
O=C(NCc1cccc(F)c1)c1cnc2ccc(N3CCC[C@@H]3c3cccc(F)c3)nn12 [X-74] | > 10000 | 70

Structure (SMILES) | IC50 (parental Ba/F3 cells) [nM] | IC50 [1] [nM]
CS(=O)(=O)N1CC(NC(=O)c2cnc3ccc(N4CCC[C@@H]4c4cccc(F)c4)nn23)C1 [X-68] | > 10000 | 38
CS(=O)(=O)N1CC[C@@H](NC(=O)c2cnc3ccc(N4CCC[C@@H]4c4cccc(F)c4)nn23)C1 [X-70] | > 10000 | 293
CC(C)S(=O)(=O)N1CCC(NC(=O)c2cnc3ccc(N4CCC[C@@H]4c4cccc(F)c4)nn23)CC1 [X-32] | > 10000 | 19
O=C(NO)c1cnc2ccc(N3CCC[C@@H]3c3cccc(F)c3)nn12 [X-150] | > 10000 | 210
O=C(NCc1nc2ccccc2s1)c1cnc2ccc(N3CCC[C@@H]3c3cccc(F)c3)nn12 [X-38] | > 10000 | 196
CCOC(=O)c1cnc2ccc(N3C[C@H](O)C[C@@H]3c3cccc(F)c3)nn12 [X-160, ethyl 6-((2R,4R)-2-(3-fluorophenyl)-4-hydroxypyrrolidin-1-yl)imidazo[1,2-b]pyridazine-3-carboxylate] | > 10000 | 73
C[C@@H]1CN(c2ccc3ncc(C#N)n3n2)[C@@H](c2cccc(F)c2)C1(F)F [X-4, 6-((2S,4R)-3,3-difluoro-2-(3-fluorophenyl)-4-methylpyrrolidin-1-yl)imidazo[1,2-b]pyridazine-3-carbonitrile] | > 10000 | 155
NC(=O)CNC(=O)c1cnc2ccc(N3C[C@@H](F)C[C@@H]3c3cccc(F)c3)nn12 [X-117] | > 10000 | 64
COC(=O)Nc1cnc2ccc(N3CCC[C@@H]3c3cccc(F)c3)nn12 [X-235] | > 10000 | 586
N#Cc1cnc2ccc(N3CCC[C@@H]3c3cccc(F)c3)nn12 [X-2, (R)-6-(2-(3-fluorophenyl)pyrrolidin-1-yl)imidazo[1,2-b]pyridazine-3-carbonitrile] | > 10000 | 268
CC1(C)CCC(CNC(=O)c2cnc3ccc(N4CCC[C@@H]4c4cccc(F)c4)nn23)O1 (stereo partly shown) [X-36] | > 10000 | 120
CC(=O)O[C@@H](C)C(=O)N1CCC(NC(=O)c2cnc3ccc(N4CCC[C@@H]4c4cccc(F)c4)nn23)CC1 [X-33] | > 10000 | 105
O=C(NCC(F)(F)F)c1cnc2ccc(N3CCCC3c3cccc(F)c3)nn12 (stereo not shown) [X-111] | > 10000 | 13
CS(=O)(=O)N1CCC(NC(=O)c2cnc3ccc(N4CCC[C@@H]4c4cccc(F)c4)nn23)CC1 [X-71, (R)-6-(2-(3-fluorophenyl)pyrrolidin-1-yl)-N-(1-(methylsulfonyl)piperidin-4-yl)imidazo[1,2-b]pyridazine-3-carboxamide] | > 10000 | 22
[2H]C1([2H])N(c2ccc3ncc(C(N)=O)n3n2)C([2H])(c2cccc(F)c2)C([2H])([2H])C1([2H])[2H] (stereo not shown) [X-13] | > 10000 | 110
CCONC(=O)c1cnc2ccc(N3CCCC3c3cccc(F)c3)nn12 (stereo not shown) [X-152, N-ethoxy-6-(2-(3-fluorophenyl)pyrrolidin-1-yl)imidazo[1,2-b]pyridazine-3-carboxamide] | > 10000 | 42
CCNC(=O)c1cnc2ccc(N3CCCC3c3cccc(F)c3)nn12 (stereo not shown) [X-21] | > 10000 | 42
CONC(=O)c1cnc2ccc(N3CCC[C@@H]3c3cccc(F)c3)nn12 [X-151] | > 10000 | 45
CS(=O)(=O)N1CCC(NC(=O)c2cnc3ccc(N4C[C@@H](F)C[C@@H]4c4cccc(F)c4)nn23)CC1 [X-121] | 5140 | 2
N#Cc1ccc(CNC(=O)c2cnc3ccc(N4CCC[C@@H]4c4cccc(F)c4)nn23)cc1 [X-89] | > 10000 | 164
CO/N=C(/N)c1cnc2ccc(N3CCC[C@@H]3c3cccc(F)c3)nn12 [X-228, (R)-6-(2-(3-fluorophenyl)pyrrolidin-1-yl)-N′-methoxyimidazo[1,2-b]pyridazine-3-carboximidamide] | > 10000 | 132
O=C(CCc1cccc(N2CCOCC2)n1)c1cnc2ccc(N3CCC[C@@H]3c3cccc(F)c3)nn12 [X-129] | > 9710 | 88
CC(C)(C)OC(=O)N1CCC(NC(=O)c2cnc3ccc(N4C[C@@H](F)C[C@@H]4c4cccc(F)c4)nn23)CC1 [X-115] | 4600 | 1
CNC(=O)c1cnc2ccc(N3CCC[C@@H]3c3cccc(F)c3)nn12 [X-43] | > 10000 | 46
CCS(=O)(=O)N1CCC(NC(=O)c2cnc3ccc(N4CCC[C@@H]4c4cccc(F)c4)nn23)CC1 [X-27] | > 10000 | 17
